Values of other authors in patent US8759329B2 (Unimed Pharmaceuticals, LLC, priority 2005, dated 2014).

How the values were obtained:
protein (SHBG, albumin) [1] = settings: circulating testosterone
protein (SHBG, albumin) [2] = target: T1, protein (SHBG, albumin) (Homo sapiens, UniProt P04278); settings: in men
T1 sequence (P04278 30-402): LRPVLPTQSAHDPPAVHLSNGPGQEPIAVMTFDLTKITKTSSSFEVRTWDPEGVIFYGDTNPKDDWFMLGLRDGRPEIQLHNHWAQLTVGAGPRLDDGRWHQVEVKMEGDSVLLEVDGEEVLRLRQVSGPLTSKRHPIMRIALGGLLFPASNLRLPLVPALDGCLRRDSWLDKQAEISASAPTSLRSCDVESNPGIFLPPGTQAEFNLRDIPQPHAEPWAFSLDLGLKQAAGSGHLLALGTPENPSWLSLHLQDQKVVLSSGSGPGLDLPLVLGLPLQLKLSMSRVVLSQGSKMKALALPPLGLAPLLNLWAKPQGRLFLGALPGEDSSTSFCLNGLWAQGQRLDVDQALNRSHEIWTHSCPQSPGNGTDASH

protein (SHBG, albumin) [3] = target: protein (SHBG, albumin) (Homo sapiens, UniProt P02768); settings: in men
protein (SHBG, albumin) (Homo sapiens, UniProt P02768), sequence (P02768 25-609): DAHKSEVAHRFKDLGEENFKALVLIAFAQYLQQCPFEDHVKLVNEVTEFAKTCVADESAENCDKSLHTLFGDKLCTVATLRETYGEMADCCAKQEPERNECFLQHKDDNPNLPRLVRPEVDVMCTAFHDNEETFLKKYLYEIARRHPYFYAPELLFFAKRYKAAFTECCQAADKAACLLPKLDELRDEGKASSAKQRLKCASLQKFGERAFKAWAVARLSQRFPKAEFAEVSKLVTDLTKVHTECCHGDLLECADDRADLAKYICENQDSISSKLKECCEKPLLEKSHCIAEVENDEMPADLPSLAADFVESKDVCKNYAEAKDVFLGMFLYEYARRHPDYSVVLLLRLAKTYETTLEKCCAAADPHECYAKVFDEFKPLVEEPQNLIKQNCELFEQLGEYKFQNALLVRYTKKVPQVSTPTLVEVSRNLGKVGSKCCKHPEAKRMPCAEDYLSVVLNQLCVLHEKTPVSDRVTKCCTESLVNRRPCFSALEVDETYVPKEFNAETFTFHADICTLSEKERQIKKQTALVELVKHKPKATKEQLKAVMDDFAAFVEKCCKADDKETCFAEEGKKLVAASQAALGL

C[C@]12CC[C@H]3[C@@H](CCC4=CC(=O)CC[C@@]43C)[C@@H]1CC[C@@H]2O [testosterone]
bound to protein in the blood (protein (SHBG, albumin) [1]): 98% | share of the binding to SHBG (protein (SHBG, albumin) [2]): approximately 40% | share bound weakly to albumin (protein (SHBG, albumin) [3]): 60%
